Columns and labels:
[1] = Photochemical quantum yields (triplet, singlet oxygen); assay type: physicochemical
[2] = Absorbance properties of halogenated xanthenes (λmax, α); assay type: physicochemical
Excerpt: Certain general properties of this class of agents are discussed in further detail in U.S. Ser. No. 09/130,041, filed on Aug. 6, 1998, U.S. Ser. No. 09/184,388, filed on Nov. 2, 1998, and U.S. Ser. No. 09/216,787, filed on Dec. 21, 1998, which are herein incorporated by reference in their entirety.

[3] = Partition coefficient Kp, n-octanol / phosphate buffered saline; assay type: physicochemical; details: ratio of equilibrium concentrations, n-octanol vs PBS pH=7.4
[4] = Retention of agent after intratumoral or peritumoral injection; details: intratumoral injection (ICG: within 24 hours)
Method: Initially, tumor cell suspensions (e.g. melanoma, breast tumor, liver tumor, renal carcinoma, gall bladder tumor or prostate tumor) were injected subcutaneously into the flanks of nude mice resulting in formation of primary tumors, within a few weeks, at the injection site having a volume of approximately 0.1 cm^3 to 0.5 cm^3.

Renal Adenocarcinoma = experiment: Intratumoral injection plus light, murine tumor model; assay type: in vivo; details: i.t. ICG medicament, tumor 3 × 4 × 5 mm; for No. Tumors Cured: 4 treated

φ (singlet oxygen) EtOH [1] | φ (singlet oxygen) H2O [1] | λmax (nm) EtOH [2] | λmax (nm) H2O [2] | α [2] | φ (singlet oxygen) MeOH [1] | λmax (nm) MeOH [2] | Compound | further results
– | – | – | 522 nm | 39000 L/cm/mol | – | – | O=C(O)c1ccccc1-c1c2cc([N+](=O)[O-])c(=O)c(Br)c-2oc2c(Br)c(O)c([N+](=O)[O-])cc12 [Eosin B] | –
0.57 | 0.32 | 523 nm | 517 nm | 91000 L/cm/mol | 0.39 | 527 nm | O=C([O-])c1ccccc1-c1c2cc(Br)c(=O)c(Br)c-2oc2c(Br)c([O-])c(Br)cc12.[Na+].[Na+] [Eosin Y] | φ (triplet) MeOH [1]: 0.28
0.63 | 0.69 | 532 nm | 528 nm | 91000 L/cm/mol | 0.62 | 529 nm | O.O=C([O-])c1ccccc1-c1c2cc(I)c(=O)c(I)c-2oc2c(I)c([O-])c(I)cc12.[Na+].[Na+] [Erythrosin B] | φ (triplet) MeOH [1]: 0.62; Kp (partition coefficient) [3]: 1.9
– | – | 532 nm | – | 11000 L/cm/mol | – | – | CCOC(=O)c1ccccc1-c1c2cc(Br)c(=O)c(Br)c-2oc2c(Br)c([O-])c(Br)cc12.[K+] [Ethyl Eosin] | –
0.03 | 0.03 | 499 nm | 490 nm | 64000 L/cm/mol | 0.09 | 492 nm | O=C1OC2(c3ccc(O)cc3Oc3cc(O)ccc32)c2ccccc21 [Fluorescein] | φ (triplet) MeOH [1]: 0.03
– | – | – | – | – | 0.72 | – | CCN(CC)CC.CCN(CC)CC.O=C(O)c1c(Cl)c(Cl)c(Cl)c(Cl)c1-c1c2cc(I)c(=O)c(I)c-2oc2c(I)c(O)c(I)cc12 [Rose Bengal Derivative II] | –
– | – | 563 nm | – | – | 0.74 | – | CCN(CC)CC.CCOC(=O)c1c(Cl)c(Cl)c(Cl)c(Cl)c1-c1c2cc(I)c(=O)c(I)c-2oc2c(I)c(O)c(I)cc12 [Rose Bengal Derivative I] | –
– | – | – | – | 14000 L/cm/mol | – | 450 nm | O=C1OC2(c3ccccc31)c1ccc(O)c(Br)c1Oc1c2ccc(O)c1Br [Solvent Red 72] | –

More lines, now with the values behind:

Compound | φ (singlet oxygen) EtOH [1] | φ (singlet oxygen) H2O [1] | λmax (nm) EtOH [2] | λmax (nm) H2O [2] | α [2] | φ (singlet oxygen) MeOH [1] | λmax (nm) MeOH [2] | further results
O=C1OC2(c3ccccc31)c1cc(Cl)c(O)c(Cl)c1Oc1c2cc(Cl)c(O)c1Cl [2′,4′,5′,7′-Tetrachlorofluorescein] | 0.05 | 0.05 | 520 nm | 510 nm | – | – | – | –
O=C1OC2(c3cc(Cl)c(O)cc3Oc3cc(O)c(Cl)cc32)c2ccccc21 [2′,7′-Dichlorofluorescein] | 0.07 | 0.04 | 511 nm | 502 nm | – | – | – | –
O=C1OC2(c3ccc(O)cc3Oc3cc(O)ccc32)c2c(Cl)c(Cl)c(Cl)c(Cl)c21 [4,5,6,7-Tetrachlorofluorescein] | – | – | – | 515 nm | 29000 L/cm/mol | – | – | –
O=C1OC2(c3ccccc31)c1ccc(O)c(Cl)c1Oc1c2ccc(O)c1Cl [4′,5′-Dichlorofluorescein] | 0.07 | 0.04 | 511 nm | 502 nm | – | – | – | –
CC1(C)C(/C=C/C=C/C=C/C=C2\N(CCCCS(=O)(=O)O)c3ccc4ccccc4c3C2(C)C)=[N+](CCCCS(=O)(=O)[O-])c2ccc3ccccc3c21 [Indocyanine Green, reference compound] | – | – | – | – | – | – | – | Tissue localization after i.t. administration [4]: substantively migrated out of the tumor; Cure Rate (Renal Adenocarcinoma; No Light control, 0 J/cm^2): 0%; No. Tumors Cured (Renal Adenocarcinoma; No Light control, 0 J/cm^2): 0; Cure Rate (Renal Adenocarcinoma; 50 J/cm^2 805 nm): 0%; No. Tumors Cured (Renal Adenocarcinoma; 50 J/cm^2 805 nm): 0
O=C([O-])c1c(Cl)c(Cl)c(Cl)c(Cl)c1-c1c2cc(Br)c(=O)c(Br)c-2oc2c(Br)c([O-])c(Br)cc12.[Na+].[Na+] [Phloxine B] | 0.63 | 0.40 | 548 nm | 541 nm | 100000 L/cm/mol | – | 547 nm | Kp (partition coefficient) [3]: 1.1
Dibromofluorescein | 0.42 | 0.32 | 510 nm | 504 nm | 14000 L/cm/mol | – | – | –
Diiodofluorescein | 0.48 | 0.33 | 513 nm | 506 nm | 58000 L/cm/mol | – | – | –
